Experiments:
[1] = molecular target: T1, mitochondrial complex II (Mus musculus, UniProt Q8K2B3+Q9CQA3+Q9CXV1+Q9CZB0); experiment: Mitochondrial respiratory capacity related to complex II after adding succinyl-CoA to isolated mitochondria (high-resolution respiration measurement); assay type: biochemical; details: mitochondria isolated from wild type mice
T1 construct: from tissue; host or cells: mitochondria isolated from the left ventricle (myocardium) of C57BL/6J mice (wild type, sham control or HF model)
T1 sequence (Q8K2B3 43-664): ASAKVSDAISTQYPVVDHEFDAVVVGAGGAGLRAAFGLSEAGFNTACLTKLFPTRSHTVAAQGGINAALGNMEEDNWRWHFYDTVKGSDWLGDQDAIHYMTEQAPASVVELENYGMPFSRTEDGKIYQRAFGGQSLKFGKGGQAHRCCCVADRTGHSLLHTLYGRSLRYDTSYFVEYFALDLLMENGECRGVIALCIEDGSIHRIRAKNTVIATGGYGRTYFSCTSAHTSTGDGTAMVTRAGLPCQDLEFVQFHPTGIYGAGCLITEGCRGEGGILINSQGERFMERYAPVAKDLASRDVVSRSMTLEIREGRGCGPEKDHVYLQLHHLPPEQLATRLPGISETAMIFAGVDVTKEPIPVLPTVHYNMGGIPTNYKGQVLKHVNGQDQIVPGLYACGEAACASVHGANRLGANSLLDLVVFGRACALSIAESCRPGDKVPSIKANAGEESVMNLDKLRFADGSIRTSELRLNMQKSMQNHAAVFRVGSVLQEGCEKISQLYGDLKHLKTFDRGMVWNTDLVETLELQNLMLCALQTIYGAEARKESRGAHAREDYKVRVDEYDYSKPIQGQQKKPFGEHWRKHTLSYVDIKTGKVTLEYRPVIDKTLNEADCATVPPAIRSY
T1 sequence (Q9CQA3 29-282 limits assumed): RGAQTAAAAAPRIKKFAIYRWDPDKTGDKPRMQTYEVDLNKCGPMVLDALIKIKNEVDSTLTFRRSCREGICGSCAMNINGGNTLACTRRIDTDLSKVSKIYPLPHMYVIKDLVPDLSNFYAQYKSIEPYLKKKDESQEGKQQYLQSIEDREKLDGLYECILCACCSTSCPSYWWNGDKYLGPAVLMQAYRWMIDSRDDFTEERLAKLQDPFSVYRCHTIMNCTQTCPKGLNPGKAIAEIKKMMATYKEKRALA
T1 sequence (Q9CZB0 30-169): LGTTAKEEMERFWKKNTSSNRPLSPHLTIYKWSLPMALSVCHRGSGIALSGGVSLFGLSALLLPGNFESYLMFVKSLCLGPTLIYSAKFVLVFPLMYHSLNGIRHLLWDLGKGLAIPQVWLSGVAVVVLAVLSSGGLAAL
T1 sequence (Q9CXV1 57-159): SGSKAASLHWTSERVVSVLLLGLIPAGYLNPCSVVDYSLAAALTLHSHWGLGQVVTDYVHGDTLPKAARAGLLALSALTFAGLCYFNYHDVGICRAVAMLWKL
Description: First, the heart (left ventricle) extracted from euthanized mice under anesthesia was immersed in a tissue preservation solution BIOPS (2.77 mM CaK2EGTA, 7.23 mM K2EGTA, 5.77 mM Na2ATP, 6.56 mM MgCl2/6H2O, 20 mM taurine, 15 mM Na2 phosphocreatine, 20 mM imidazole, 0.5 mM dithiothreitol, 50 mM MES hydrate, pH 7.1), and then shredded in a tissue isolation buffer (100 mM sucrose, 100 mM KCl, 50 mM tris-HCl, 1 mM KH2PO4, 0.1 mM EGTA, 0.2% bovine serum albumin, pH 7.4). Protease was added to this shredded product to cause an enzyme reaction and homogenization was then performed. The obtained homogenized solution was centrifuged to remove the supernatant, and the precipitate was washed with a tissue isolation buffer twice. […]
A mitochondrial respiratory capacity (oxidative phosphorylation: OXPHOS) was measured by a high-resolution respiration measurement method. […] An oxygen consumption amount was calculated using Datlab software, and in this case, correction was performed per tissue weight or per mitochondrion. […]
(2) 10 mmol/L of glutamic acid, 2 mmol/L of malic acid, and 5 mmol/L of pyruvic acid, which are substrates related to mitochondrial complex I, were added, and the oxygen consumption amount was measured (CI_OXPHOS).
(§1) (3) 10 mmol/L of succinic acid, which is a substrate related to mitochondrial complex II, was added, and the oxygen consumption amount was measured (CI+II_OXPHOS). […]

[2] = system: H9c2 cells; experiment: Respiratory capacity related to mitochondrial complex II in glycine-treated H9c2 cells; assay type: cell-based
Description: (§2) When glycine was used, glycine was added to the culture medium for cultured H9c2 cells so that the concentration was 100 mM, and the cells were cultured for 6 hours. After culturing, the cells were collected and mitochondria were isolated. Then, the succinylation level of the mitochondrial proteins was measured by WB.
(§3) In addition, in the heme synthesis process, glycine and succinyl-CoA reacted to synthesize ALA. […] The succinylation level and the respiratory capacity related to mitochondrial complex II were examined.

[3] = system: mitochondrial complex II; experiment: Expression level of mitochondrial complex II per mitochondrion (blue native method, anti-SDHA); assay type: biochemical; details: mitochondria isolated from HF model mice treated with 1 mM succinyl-CoA
Description: Based on the results so far, it was clearly understood that the respiratory capacity related to mitochondrial complex II could be controlled by the expression level of mitochondrial complex II per mitochondrion. Therefore, for the mitochondria isolated from the control mice and the HF model mice and the mitochondria isolated from the HF model mice and then treated with 1 mM succinyl-CoA, the expression level of mitochondrial complex II per mitochondrion was evaluated using anti-SDHA mouse monoclonal antibodies (1:1,000, ab14715, commercially available from Abeam) by a blue native method.

[4] = system: mitochondrial proteins; experiment: Succinylation assay of mitochondrial proteins (isolated mouse heart mitochondria, western blotting); assay type: biochemical, mice
Description: First, the heart (left ventricle) extracted from euthanized mice under anesthesia was immersed in a tissue preservation solution BIOPS (2.77 mM CaK2EGTA, 7.23 mM K2EGTA, 5.77 mM Na2ATP, 6.56 mM MgCl2/6H2O, 20 mM taurine, 15 mM Na2 phosphocreatine, 20 mM imidazole, 0.5 mM dithiothreitol, 50 mM MES hydrate, pH 7.1), and then shredded in a tissue isolation buffer (100 mM sucrose, 100 mM KCl, 50 mM tris-HCl, 1 mM KH2PO4, 0.1 mM EGTA, 0.2% bovine serum albumin, pH 7.4). Protease was added to this shredded product to cause an enzyme reaction and homogenization was then performed. The obtained homogenized solution was centrifuged to remove the supernatant, and the precipitate was washed with a tissue isolation buffer twice. A suspension buffer (225 mM mannitol, 75 mM sucrose, 10 mM tris-HCl, 0.1 mM EDTA, pH 7.4) was added to the washed precipitate and the precipitate was dissolved.
[…] Then, the succinylation level of the mitochondrial proteins was measured by western blotting (WB).
Specifically, first, succinyl-CoA (0, 1, 3, or 10 mM) was added to the mitochondria collected from the left ventricle of wild type mice (C57BL/6J), succinylation assay was performed, and the succinylation level of the mitochondrial proteins (the relative amount when the amount of succinylation proteins without addition of succinyl-CoA (0 mM) was set as 1) was examined. […]

[5] = system: H9c2 cells; experiment: Succinylation level of mitochondrial proteins of glycine-treated H9c2 cells; assay type: cell-based
Description: as §2, §3

[6] = system: mitochondrial complex II; experiment: Respiratory capacity related to complex II in myocardial mitochondria of HF model mice given ALA; assay type: in vivo; details: ALA 50 mg/L in drinking water (6 to 8 mg/kg/day), day 28 after operation
Description: (§4) A mitochondrial respiratory capacity (oxidative phosphorylation: OXPHOS) was measured by a high-resolution respiration measurement method. Specifically, isolated mitochondria (50 to 100 μg) or myocardial fibrous tissues (0.5 to 3 mg) after the cell membrane permeation treatment were used as a test sample, and measurement was performed using a mitochondrial oxygen activity/cell metabolic energy analyzing device (product name: “OROBOROS Oxygraph-2 k,” commercially available from Innsbruck) (hereinafter referred to as a “mitochondrial respiratory capacity measurement device” in some cases) under an environment at 37° C. according to the following protocol. An oxygen consumption amount was calculated using Datlab software, and in this case, correction was performed per tissue weight or per mitochondrion.
(4) In order to observe the respiration of OXPHOS of mitochondrial complex II alone, 0.5 μmol/L of rotenone, which is an inhibitor of mitochondrial complex I, was added and the oxygen consumption amount was measured (CII_OXPHOS).
(§5) The left anterior descending coronary artery of the heart of 10- to 12-week old male C57BL/6J mice (body weight of 23 to 26 g) was ligated to cause myocardial infarction (MI). […]

[7] = system: HF model mice; experiment: Echocardiography of HF model mice given ALA; assay type: in vivo; details: HF model mice with ALA vs without ALA; 6 to 8 mg/kg/day; day 28 after operation
Description: Echocardiography was performed under anesthesia ([…] 8 μL/gBW, intraperitoneal administration) with a short duration of action and least impact on the cardiovascular system. The limbs and tail were fixed in a lying position to an examination table with a tape and the anterior chest wall of the mice was depilated with a depilatory cream. Using an ultrasonic diagnostic device and a 12 MHz linear probe, optimal 2D parasternal short-axis images were visualized at the papillary muscle level. Switching to an M mode method was performed, recording was performed at a recording paper speed of 40 mm/s, and a heart rate, a left ventricular end-diastolic dimension, a left ventricular end-systolic dimension, a left ventricular anterior wall thickness, a left ventricular posterior wall thickness, and a left ventricular fractional shortening were measured.
(§6) The left anterior descending coronary artery of the heart of 10- to 12-week old male C57BL/6J mice (body weight of 23 to 26 g) was ligated to cause myocardial infarction (MI). The body weight of the mice was measured before the operation, a mixed anesthetic containing 3 types including 0.3 mg/kg BW of medetomedine hydrochloride, 4.0 mg/kg BW of midazolam, and 5.0 mg/kg BW of butorphanol tartrate was intraperitoneally administered, and it was confirmed that the depth of anesthesia was sufficient. […]

[8] = system: HF model mice; experiment: Exercise capacity (treadmill) of HF model mice given ALA; assay type: in vivo; details: HF model mice with ALA vs without ALA; treadmill run until exhaustion
Description: as §6
(§7) Specifically, after the HF model mice were underwent a left coronary artery ligation operation, an aqueous solution (50 mg/L) containing ALA (≥98%, commercially available from Sigma Aldrich) was administered by forced drinking (6 to 8 mg/kg/day), and on the 28th day after the operation, the mitochondrial functions were measured using echocardiography and a mitochondrial respiratory capacity measurement device. […]
In addition, the exercise capacities of the HF model mice without administration of ALA and the HF model mice to which ALA was administered were examined. The exercise capacity was expressed as a product of an exercise time and a body weight. The exercise time was measured using a small animal treadmill, and mice were at rest for 10 minutes, and w-up for 10 minutes (6 m/min, inclination of 10 degrees), and then forced to run until exhaustion by increasing a load (2 m/2 min). […]

[9] = system: mitochondrial complex IV; experiment: Respiratory capacity related to complex IV in myocardial mitochondria of HF model mice given ALA; assay type: in vivo; details: ALA 50 mg/L in drinking water (6 to 8 mg/kg/day), day 28 after operation
Description: as §4
(8) The respiratory capacity when 2 mmol/L of ascorbic acid and 0.5 mmol/L of TMPD (N,N,N′,N′-tetramethyl-p-phenylenediamine), which are substrates of mitochondrial complex IV, were added was measured. Next, the respiratory capacity when 100 mmol/L of sodium azide as an inhibitor was added was measured, and a difference therebetween was calculated (CIV_OXPHOS).
as §5

[10] = system: mitochondrial complex I and mitochondrial complex II; experiment: Respiratory capacity related to complex I and complex II in myocardial mitochondria of HF model mice given ALA; assay type: in vivo; details: ALA 50 mg/L in drinking water (6 to 8 mg/kg/day), day 28 after operation
Description: as §4, §1, §7

[11] = H9c2 cells treated with glycine, succinyl-CoA added

CC(C)(COP(=O)(O)OP(=O)(O)OC[C@H]1O[C@@H](n2cnc3c(N)ncnc32)[C@H](O)[C@@H]1OP(=O)(O)O)[C@@H](O)C(=O)NCCC(=O)NCCSC(=O)CCC(=O)O [succinyl-CoA]
respiratory capacity related to mitochondrial complex II ([1]; 1 mM succinyl-CoA): increased
respiratory capacity related to mitochondrial complex II ([1]; 10 mM succinyl-CoA): significantly decreased
respiratory capacity related to mitochondrial complex II [2, 11]: improved
amount of mitochondrial complex II (expression level per mitochondrion) [3]: remained reduced
succinylation in the mitochondrial protein ([4]; mitochondria from left ventricle of wild type mice (C57BL/6J), succinyl-CoA 1, 3 or 10 mM, relative to 0 mM): increased
succinylation level of mitochondrial proteins ([4]; mitochondria isolated from HF model mice, 0.1 mM succinyl-CoA): improved
succinylation level of mitochondrial proteins [5, 11]: improved

NCC(=O)CCC(=O)O [ALA, 5-aminolevulinic acid]
respiratory capacity related to mitochondrial complex II [6]: improved
left ventricular fractional shortening (% FS) [7]: significantly improved
exercise capacity (exercise time x body weight) [8]: significantly improved
respiratory capacity related to mitochondrial complex IV [9]: improved
respiratory capacity related to mitochondrial complex I and mitochondrial complex II [10]: improved

NCC(=O)O [glycine, reference compound]
respiratory capacity related to mitochondrial complex II ([2]; cells treated with glycine): decreases
succinylation level of mitochondrial proteins ([5]; H9c2 cells treated with glycine (100 mM, 6 hours)): decreased

From US12013389B2, “Method of evaluating pathological conditions of heart failure” (NATIONAL UNIVERSITY CORPORATION HOKKAIDO UNIVERSITY, priority 2018, dated 2024)
